Data set [1] has as its system Mus musculus. In words: Biodistribution in tumor of athymic nude mouse bearing U87MG cells after 2 hrs co-injecting with 10 mg/kg of c(RGDyK) by micro PET scan method. Further details: dose 10 mg/kg; call rule not given here. The data set is classed as ADME, organism-based, Neoplasm, U-87MG ATCC. As to conditions: in vivo.
In data set [2] the test system is Mus musculus. Nature of the data set: Biodistribution in tumor of athymic nude mouse bearing U87MG cells after 1 hr co-injecting with 10 mg/kg of c(RGDyK) by micro PET scan method. As to conditions: in vivo. It is filed as ADME, organism-based, Neoplasm, U-87MG ATCC. Further details: dose 10 mg/kg.
Data set [3] has as its system Mus musculus. Nature of the data set: Biodistribution in tumor of athymic nude mouse bearing U87MG cells at 3.7 MBq, iv after 1 hr by micro PET scan method. Particulars: in vivo. The data set is classed as ADME, organism-based, Neoplasm, U-87MG ATCC.
The subject of data set [4] is Mus musculus. Nature of the data set: Biodistribution in tumor of athymic nude mouse bearing U87MG cells at 3.7 MBq, iv after 0.5 hrs by micro PET scan method. It is filed as ADME, organism-based, Neoplasm, U-87MG ATCC. Particulars: in vivo.
Data set [5] relates to Mus musculus. Nature of the data set: Biodistribution in tumor of athymic nude mouse bearing U87MG cells after 4 hrs co-injecting with 10 mg/kg of c(RGDyK) by micro PET scan method. It is filed as ADME, organism-based, Neoplasm, U-87MG ATCC. Further details: dose 10 mg/kg. Particulars: in vivo.
Data set [6] has as its system Mus musculus. Nature of the data set: Biodistribution in tumor of athymic nude mouse bearing U87MG cells at 3.7 MBq, iv after 2 hrs by micro PET scan method. It is filed as ADME, organism-based, Neoplasm, U-87MG ATCC. As to conditions: in vivo.
In data set [7] the test system is Mus musculus. In words: Biodistribution in tumor of athymic nude mouse bearing U87MG cells after 0.5 hrs co-injecting with 10 mg/kg of c(RGDyK) by micro PET scan method. It is filed as ADME, organism-based, Neoplasm, U-87MG ATCC. Further details: dose 10 mg/kg. Particulars: in vivo.
For data set [8], the system named is Mus musculus. Nature of the data set: Biodistribution in abdomen of athymic nude mouse bearing U87MG cells at 3.7 MBq, iv upto 4 hrs postinjection by micro PET scan method. The data set is classed as ADME, organism-based, U-87MG ATCC. Particulars: in vivo.
Data set [9] is described as follows: Chemical stability of the compound in phosphate buffer saline in presence of 5% EtOH after 6 hrs by Radio-HPLC analysis. The data set is classed as physicochemical. Particulars: phosphate buffered saline with 5% EtOH; read-out: Stability.
For data set [10], the system named is Mus musculus. In words: Biodistribution in tumor of athymic nude mouse bearing U87MG cells at 3.7 MBq, iv after 4 hrs by micro PET scan method. The data set is classed as ADME, organism-based, Neoplasm, U-87MG ATCC. Particulars: in vivo.
In data set [11] the target is Integrin alpha-V/beta-3 (Homo sapiens) (UniProt P05106+P06756). Nature of the data set: Displacement of [125]I-echistatin from alphaVbeta3 integrin expressed in human U87MG cells by competitive binding assay. It is filed as cell-based. As to conditions: U-87MG ATCC.

`N=C(N)NCCC[C@H]1NC(=O)CNC(=O)[C@@H](CC(=O)O)NC(=O)[C@H](Cc2ccc(O)cc2)NC(=O)[C@@H](CCCCNC(=O)CCCC(=O)Nc2ccc(C3=NN=C(c4ccccn4)[C@@H]4CCC[C@@H](OCC[18F])CC[C@@H]34)nc2)NC1=O`: the Drug uptake in data set [1] came out at 0.6 % ID/g; in data set [2] it was 1 % ID/g; in data set [3] it was 4.4 % ID/g; in [4] it was 4.6 % ID/g; in data set [5] it was 0.4 % ID/g; in data set [6], 4.2 % ID/g. Also, the Drug uptake in data set [7] is reported as 1.4 % ID/g; in data set [8], “Active”; in data set [10] it was 2.7 % ID/g. Moreover, the remaining at 6 h in [9] was above 95%.

Turning to `N=C(N)NCCC[C@H]1NC(=O)CNC(=O)[C@@H](CC(=O)O)NC(=O)[C@H](Cc2ccc(O)cc2)NC(=O)[C@@H](CCCCN)NC1=O`, in data set [11], the Activity result is “Dose-dependent effect”.

Turning to `N=C(N)NCCC[C@H]1NC(=O)CNC(=O)[C@@H](CC(=O)O)NC(=O)[C@H](Cc2ccc(O)cc2)NC(=O)[C@@H](CCCCNC(=O)CCCC(=O)Nc2ccc(C3=NN=C(c4ccccn4)[C@@H]4CCC[C@@H](OCCF)CC[C@@H]34)nc2)NC1=O`, in data set [11], the Activity entry was “Dose-dependent effect”.

(Values after ChEMBL document CHEMBL1821695, “Tetrazine-trans-cyclooctene ligation for the rapid construction of integrin αvβ₃ targeted PET tracer based on a cyclic RGD peptide” (Bioorg Med Chem Lett, 2011).)
